# Measurements from patent US8822505B2, “Azetidine derivatives” (Hoffmann-La Roche Inc., priority 2012, dated 2014).
# Where a name gives a salt, the structure may show the parent alone.
# Columns and labels:
# [1] = target: human Cat L (Homo sapiens (Human), UniProt P07711); experiment: Cathepsin enzyme inhibition assay (human Cat L); type: biochemical; details: enzyme 1 nM, substrate Z-Val-Val-Arg-AMC 20 μM
# Procedure: (§1) Cathepsin Enzyme Inhibition Assay
# (§2) Enzyme activity is measured by observing the increase in fluorescence intensity caused by cleavage of a peptide substrate containing a fluorophore whose emission is quenched in the intact peptide.
# (§3) Assay buffer: 100 mM potassium phosphate pH 6.5, EDTA-Na 5 mM, Triton X-100 0.001%, DTT 5 mM.
# (§4) Enzymes (all at 1 nM): human and mouse Cathepsin S, Cat K, Cat B, Cat L.
# (§5) Substrate (20 μM): Z-Val-Val-Arg-AMC, except for Cat K which uses Z-Leu-Arg-AMC (both from Bachem).
# Excitation 360 nm, Emission 465 nm.
# Enzyme is added to the substance dilutions in 96-well microtitre plates and the reaction is started with substrate. Fluorescence emission is measured over 20 minutes, during which time a linear increase is observed in the absence of inhibitor. IC50 are calculated by standard methods.
# Inhibition of human Cat S, mouse Cat S, human Cat K, human Cat B, human Cat L and mouse Cat L have been measured separately. The results obtained for human Cat S and L for representative compounds of the invention are expressed in the following table in μM.
# [2] = target: human Cat S (Homo sapiens (Human), UniProt P25774); experiment: Cathepsin enzyme inhibition assay (human Cat S); type: biochemical; details: enzyme 1 nM, substrate Z-Val-Val-Arg-AMC 20 μM
# human Cat S, sequence (P25774 115-331): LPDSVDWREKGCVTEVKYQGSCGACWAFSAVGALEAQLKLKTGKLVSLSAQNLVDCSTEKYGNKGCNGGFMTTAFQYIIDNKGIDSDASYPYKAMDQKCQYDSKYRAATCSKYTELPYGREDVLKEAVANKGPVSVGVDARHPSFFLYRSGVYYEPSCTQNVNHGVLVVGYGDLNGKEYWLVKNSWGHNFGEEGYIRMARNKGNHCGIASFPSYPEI
# Procedure: as §1, §2, §3, §4, §5
# Enzyme is added to the substance dilutions in 96-well microtitre plates and the reaction is started with substrate. […] IC50 are calculated by standard methods.
# Inhibition of human Cat S, mouse Cat S, human Cat K, human Cat B, human Cat L and mouse Cat L have been measured separately.
# human Cat L, sequence (P07711 114-333): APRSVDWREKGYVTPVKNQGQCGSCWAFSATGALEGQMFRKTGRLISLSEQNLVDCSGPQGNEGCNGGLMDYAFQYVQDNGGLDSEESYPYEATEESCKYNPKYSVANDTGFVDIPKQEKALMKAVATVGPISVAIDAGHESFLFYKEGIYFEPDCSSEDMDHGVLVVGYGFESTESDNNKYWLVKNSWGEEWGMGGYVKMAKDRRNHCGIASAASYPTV
SMILES,"IC50 ([1]; pH 6.5, hydrochloride) [nM]","IC50 ([2]; pH 6.5, hydrochloride) [nM]",IC50 ([1]; pH 6.5) [nM],IC50 ([2]; pH 6.5) [nM]
"CC(C)(C)OC(=O)N1CC(C(=O)N2C[C@H](S(=O)(=O)c3ccccc3Cl)C[C@H]2C(=O)NC2(C#N)CC2)(c2ncc(Cl)cc2F)C1 [Example 10, 3-[(2S,4R)-4-(2-Chloro-benzenesulfonyl)-2-(1-cyano-cyclopropylcarbamoyl)-pyrrolidine-1-carbonyl]-3-(5-chloro-3-fluoro-pyridin-2-yl)-azetidine-1-carboxylic acid tert-butyl ester]",–,–,194,1.26
"C[C@H](Oc1ccc(S(=O)(=O)[C@@H]2C[C@@H](C(=O)NC3(C#N)CC3)N(C(=O)C3(c4ncc(Br)cc4F)CN(C(=O)OC(C)(C)C)C3)C2)c(Cl)c1)C(F)(F)F [Example 33, 3-(5-Bromo-3-fluoro-pyridin-2-yl)-3-[(2S,4R)-4-[2-chloro-4-((S)-2,2,2-trifluoro-1-methyl-ethoxy)-benzenesulfonyl]-2-(1-cyano-cyclopropylcarbamoyl)-pyrrolidine-1-carbonyl]-azetidine-1-carboxylic acid tert-butyl ester]",–,–,89.5,3.54
"CN1CC(C(=O)N2C[C@H](S(=O)(=O)c3ccccc3Cl)C[C@H]2C(=O)NC2(C#N)CC2)(c2ncc(Cl)cc2F)C1 [Example 16, (2S,4R)-4-(2-Chloro-benzenesulfonyl)-1-[3-(5-chloro-3-fluoro-pyridin-2-yl)-1-methyl-azetidine-3-carbonyl]-pyrrolidine-2-carboxylic acid (1-cyano-cyclopropyl)-amide]",–,–,39.8,0.525
"CC(C)(C)OC(=O)N1CCC1(C(=O)N1C[C@H](S(=O)(=O)c2ccc(F)cc2Cl)C[C@H]1C(=O)NC1(C#N)CC1)c1ncc(Cl)cc1F (stereo partly drawn) [Example 21, 2-[(2S,4R)-4-(2-Chloro-4-fluoro-benzenesulfonyl)-2-(1-cyano-cyclopropylcarbamoyl)-pyrrolidine-1-carbonyl]-2-(5-chloro-3-fluoro-pyridin-2-yl)-azetidine-1-carboxylic acid tert-butyl ester]",–,–,1340,1.04
"N#CC1(NC(=O)[C@@H]2C[C@@H](S(=O)(=O)c3ccc(F)cc3Cl)CN2C(=O)C2(c3ncc(Cl)cc3F)CCN2)CC1 (stereo partly drawn) [Example 31, (2S,4R)-4-(2-Chloro-4-fluoro-benzenesulfonyl)-1-[2-(5-chloro-3-fluoro-pyridin-2-yl)-azetidine-2-carbonyl]-pyrrolidine-2-carboxylic acid (1-cyano-cyclopropyl)-amide; hydrochloride]",81.6,1.57,–,–
"N#CC1(NC(=O)[C@@H]2C[C@@H](S(=O)(=O)c3ccc(OCC(F)(F)F)cc3Cl)CN2C(=O)C2(c3ccc(Cl)cn3)CN(CC(F)F)C2)CC1 [Example 8, (2S,4R)-1-[3-(5-Chloro-pyridin-2-yl)-1-(2,2-difluoro-ethyl)-azetidine-3-carbonyl]-4-[2-chloro-4-(2,2,2-trifluoro-ethoxy)-benzenesulfonyl]-pyrrolidine-2-carboxylic acid (1-cyano-cyclopropyl)-amide]",–,–,141,0.694
"N#CC1(NC(=O)[C@@H]2C[C@@H](S(=O)(=O)c3ccc(OCC(F)(F)F)cc3Cl)CN2C(=O)C2(c3ncc(Br)cc3F)CNC2)CC1 [Example 19, (2S,4R)-1-(3-(5-Bromo-3-fluoropyridin-2-yl)azetidine-3-carbonyl)-4-(2-chloro-4-(2,2,2-trifluoroethoxy)phenylsulfonyl)-N-(1-cyanocyclopropyl)pyrrolidine-2-carboxamide]",–,–,33.8,1.67
"CC(C)(C)OC(=O)N1CCC1(C(=O)N1C[C@H](S(=O)(=O)c2ccc(F)cc2Cl)C[C@H]1C(=O)NC1(C#N)CC1)c1ncc(Cl)cc1F (stereo partly drawn) [Example 24, 2-[(2S,4R)-4-(2-Chloro-4-fluoro-benzenesulfonyl)-2-(1-cyano-cyclopropylcarbamoyl)-pyrrolidine-1-carbonyl]-2-(5-chloro-3-fluoro-pyridin-2-yl)-azetidine-1-carboxylic acid tert-butyl ester]",–,–,922,4.56
"CC(C)(C)OC(=O)N1CC(C(=O)N2C[C@H](S(=O)(=O)c3ccc(OCC(F)(F)F)cc3Cl)C[C@H]2C(=O)NC2(C#N)CC2)(c2ccc(Cl)cn2)C1 [Example 4, 3-(5-Chloro-pyridin-2-yl)-3-[(2S,4R)-4-[2-chloro-4-(2,2,2-trifluoro-ethoxy)-benzenesulfonyl]-2-(1-cyano-cyclopropylcarbamoyl)-pyrrolidine-1-carbonyl]-azetidine-1-carboxylic acid tert-butyl ester]",–,–,1240,2.75
"COc1ccc(S(=O)(=O)[C@@H]2C[C@@H](C(=O)NC3(C#N)CC3)N(C(=O)C3(c4ccc(Cl)cn4)CN(C)C3)C2)c(Cl)c1 [Example 3, (2S,4R)-4-(2-Chloro-4-methoxy-benzenesulfonyl)-1-[3-(5-chloro-pyridin-2-yl)-1-methyl-azetidine-3-carbonyl]-pyrrolidine-2-carboxylic acid (1-cyano-cyclopropyl)-amide]",–,–,292,1.2

# Now from value to molecule:
"IC50 ([1]; pH 6.5, hydrochloride) [nM]","IC50 ([2]; pH 6.5, hydrochloride) [nM]",IC50 ([1]; pH 6.5) [nM],IC50 ([2]; pH 6.5) [nM],SMILES
317,4.16,–,–,"C[C@H](Oc1ccc(S(=O)(=O)[C@@H]2C[C@@H](C(=O)NC3(C#N)CC3)N(C(=O)C3(c4ncc(Cl)cc4F)CCN3)C2)c(Cl)c1)C(F)(F)F (stereo partly drawn) [Example 38, (2S,4R)-1-[2-(5-Chloro-3-fluoro-pyridin-2-yl)-azetidine-2-carbonyl]-4-[2-chloro-4-((S)-2,2,2-trifluoro-1-methyl-ethoxy)-benzenesulfonyl]-pyrrolidine-2-carboxylic acid (1-cyano-cyclopropyl)-amide hydrochloride]"
–,–,70.6,2.08,"Cc1cc(-c2ccc(S(=O)(=O)[C@@H]3C[C@@H](C(=O)NC4(C#N)CC4)N(C(=O)C4(c5ncc(Br)cc5F)CCN4)C3)c(Cl)c2)ccn1 (stereo partly drawn) [Example 44, (2S,4R)-1-[2-(5-Bromo-3-fluoro-pyridin-2-yl)-azetidine-2-carbonyl]-4-[2-chloro-4-(2-methyl-pyridin-4-yl)-benzenesulfonyl]-pyrrolidine-2-carboxylic acid (1-cyano-cyclopropyl)-amide hydrochloride]"
–,–,6,1,"C[C@H](Oc1ccc(S(=O)(=O)[C@@H]2C[C@@H](C(=O)NC3(C#N)CC3)N(C(=O)C3(c4ncc(Br)cc4F)CN(CC(F)(F)F)C3)C2)c(Cl)c1)C(F)(F)F [Example 52, (2S,4R)-1-[3-(5-Bromo-3-fluoro-pyridin-2-yl)-1-(2,2,2-trifluoro-ethyl)-azetidine-3-carbonyl]-4-[2-chloro-4-((S)-2,2,2-trifluoro-1-methyl-ethoxy)-benzenesulfonyl]-pyrrolidine-2-carboxylic acid (1-cyano-cyclopropyl)-amide]"
–,–,86.6,2.33,"Cc1cc(-c2ccc(S(=O)(=O)[C@@H]3C[C@@H](C(=O)NC4(C#N)CC4)N(C(=O)C4(c5ncc(Cl)cc5F)CCN4)C3)c(Cl)c2)ccn1 (stereo partly drawn) [Example 43, (2S,4R)-1-[2-(5-Chloro-3-fluoro-pyridin-2-yl)-azetidine-2-carbonyl]-4-[2-chloro-4-(2-methyl-pyridin-4-yl)-benzenesulfonyl]-pyrrolidine-2-carboxylic acid (1-cyano-cyclopropyl)-amide hydrochloride]"
–,–,621,1.42,"N#CC1(NC(=O)[C@@H]2C[C@@H](S(=O)(=O)c3ccc(F)cc3Cl)CN2C(=O)C2(c3ncc(Br)cc3F)CCN2)CC1 (stereo partly drawn) [Example 36, (2S,4R)-1-[2-(5-Bromo-3-fluoro-pyridin-2-yl)-azetidine-2-carbonyl]-4-(2-chloro-4-fluoro-benzenesulfonyl)-pyrrolidine-2-carboxylic acid (1-cyano-cyclopropyl)-amide hydrochloride]"
1440,1.3,–,–,"N#CC1(NC(=O)[C@@H]2C[C@@H](S(=O)(=O)c3ccc(F)cc3Cl)CN2C(=O)C2(c3ncc(Cl)cc3F)CCN2)CC1 (stereo partly drawn) [Example 35, (2S,4R)-4-(2-Chloro-4-fluoro-benzenesulfonyl)-1-[2-(5-chloro-3-fluoro-pyridin-2-yl)-azetidine-2-carbonyl]-pyrrolidine-2-carboxylic acid (1-cyano-cyclopropyl)-amide hydrochloride]"
–,–,26.9,5.46,"C[C@H](Oc1ccc(S(=O)(=O)[C@@H]2C[C@@H](C(=O)NC3(C#N)CC3)N(C(=O)C3(c4ncc(Br)cc4F)CCN3)C2)c(Cl)c1)C(F)(F)F (stereo partly drawn) [Example 39, (2S,4R)-1-[2-(5-Bromo-3-fluoro-pyridin-2-yl)-azetidine-2-carbonyl]-4-[2-chloro-4-((S)-2,2,2-trifluoro-1-methyl-ethoxy)-benzenesulfonyl]-pyrrolidine-2-carboxylic acid (1-cyano-cyclopropyl)-amide hydrochloride]"
–,–,625,0.965,"Cn1cc(-c2ccc(S(=O)(=O)[C@@H]3C[C@@H](C(=O)NC4(C#N)CC4)N(C(=O)C4(c5ncc(Cl)cc5F)CCN4C(=O)OC(C)(C)C)C3)c(Cl)c2)cn1 (stereo partly drawn) [Example 45, tert-butyl 2-(5-chloro-3-fluoropyridin-2-yl)-2-((2S,4R)-4-(2-chloro-4-(1-methyl-1H-pyrazol-4-yl)phenylsulfonyl)-2-(1-cyanocyclopropylcarbamoyl)pyrrolidine-1-carbonyl)azetidine-1-carboxylate]"
